Laboratory results reported in patent US11065266B2, “Method of treating melanoma using an inhibitor of an atypical protein kinase C” (UNIVERSITY OF SOUTH FLORIDA, priority 2016, dated 2021).

Assays:
PKC-ι = target: T1, PKC-ι (Homo sapiens, UniProt P41743); parameters: dose or concentration left out as unconfirmed; conditions: cited from earlier work
T1 sequence (P41743 1-596): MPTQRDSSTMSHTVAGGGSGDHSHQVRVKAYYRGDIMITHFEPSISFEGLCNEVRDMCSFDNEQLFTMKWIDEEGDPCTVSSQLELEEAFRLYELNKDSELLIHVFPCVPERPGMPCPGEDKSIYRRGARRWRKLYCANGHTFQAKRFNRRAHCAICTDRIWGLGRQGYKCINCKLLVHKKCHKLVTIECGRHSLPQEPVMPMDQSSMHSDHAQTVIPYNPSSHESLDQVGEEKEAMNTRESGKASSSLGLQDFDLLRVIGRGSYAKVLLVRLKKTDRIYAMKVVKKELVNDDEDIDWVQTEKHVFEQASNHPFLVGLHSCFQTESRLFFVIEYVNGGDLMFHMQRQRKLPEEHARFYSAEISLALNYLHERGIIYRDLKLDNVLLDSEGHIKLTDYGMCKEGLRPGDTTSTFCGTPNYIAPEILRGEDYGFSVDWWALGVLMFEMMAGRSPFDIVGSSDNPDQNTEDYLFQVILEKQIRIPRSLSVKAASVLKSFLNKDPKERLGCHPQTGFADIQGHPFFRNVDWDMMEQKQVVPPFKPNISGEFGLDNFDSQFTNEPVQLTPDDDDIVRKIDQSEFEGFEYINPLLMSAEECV

[1] = tested on: MAPK, Akt2, FGFR 1/2/3/4, mTOR, GSK3B, IRAK1/4, JAK 1/2, MEK1, ERK1/2, JNK 1/2, PKA, Src, ROCK2 and PI3K; conditions: cited from earlier work
MeWo cells = test: WST-1 assay for cell viability and cytotoxicity; type: cell-based, human; conditions: treated at IC50, 3 days
Method: (§1) Approximately 4×10^3 cells (PCS-200-013, SK-MEL-2 and MeWo) were cultured in a 96 well plate. […] This IC50 was obtained based on the cell viability counts in the previous experiments. Additional doses of sterile water or inhibitor were supplied every 24 h during 3 day incubation period. At the end of 3 day treatment, media were removed and fresh media (100 μL) were added with 4-[3-(4-iodophenyl)-2-(4-nitropheny))-2H-5-tetrazolio]-1,3-benzene disulfonate (WST-1) reagent (10 μL) to each well. The absorbance was measured at 450 nm for every 0.5 hour up to 3 hours using the Synergy HT microplate reader from Biotek (Winooski, Vt.).
WST-1 assay was performed to determine the in-vitro cytotoxicity of ACPD and DNDA on normal and malignant cell lines. Measured absorbance at 450 nm is directly proportional to the number of cells present. Cells produce a water soluble formazan with WST-1 as a result of their mitochondrial dehydrogenase activity. WST-1 assay is preferred over 3-(4,S-Dimethyl-2-thiazolyl)-2, 5-diphenyl-2Htetrazolium bromide (MTT) test since MTT needs to add acidic isopropanol to dissolve formazan which gives an additional toxicity to cells.

other PKC isoforms = conditions: cited from earlier work
SK-MEL-2 cells = test: Growth inhibition assay (cell counts over 72 h); type: cell-based, human; conditions: for inhibition at 0.05 µM / inhibition at 0.1 µM / inhibition at 0.2 µM / inhibition at 0.5 µM / inhibition at 1 µM: Homo sapiens; for inhibition at 0.05 µM: 50 nM; for inhibition at 0.1 µM: 100 nM; for inhibition at 0.2 µM: 200 nM; for inhibition at 0.5 µM: 500 nM
Method: For the growth inhibition assays, the PCS-200-013 cells or SK-MEL-2 cells were seeded at 40,000 cells/well into 6-well-plates and treated with the respective inhibitor. Cells in each well were counted after 24 h from the time of treating with the inhibitor at the desired concentration. Each inhibitor had triplicate plates which were counted at 24th, 48th and 72nd hours after initiating the inhibitor treatment. Inhibitors were added after 24 h of seeding point. The inhibitor concentrations were none (control), 50 nM, 100 nM, 200 nM, 500 nM and 1 μM. The cells were counted using a hemocytometer. The same procedure was followed for inhibitors ICA-1, ACPD, 3,4-diamino-2,7-naphthalenedisulfonic acid DNDA and 8-hydroxy-1, 3,6-naphthalenetrisulfonic acid (ζ-Stat).
Cell growth of malignant melanoma cells was reduced by applying PKC-ι and PKC-ζ inhibitors (FIGS. 3A-3D and 4A-4B). Both PKC-ι, and PKC-ζ heavily contributed to the migration of metastasized melanoma cells and migration can be suppressed using ICA-1 and ACPD. For example, Tables 1-2 provide a summary of the percentage inhibition of growth of SK-MEL-2 cells (Table 1 for ICA-1 and Table 2 for ACPD) as a function of time over 72 h period. Both ACPD and ICA-1 have 40% effectiveness on cell proliferation inhibition at the highest concentration used. Inhibition is increased upon increasing the concentration.

[2] = tested on: malignant melanoma cells (SK-MEL-2 and MeWo); test: WST-1 assay, ζ-Stat; type: cell-based, human; conditions: 2.5 μM
Method: as §1
Cell proliferation was measured using WST-1 assay for SK-MEL-2 (FIG. 16A) and MeWo (FIG. 16b). Absorbance at 450 nm due to production of water soluble formazan was measured as a function of time and the absorbance is directly proportional to the number of cells. The experimental concentration for ζ-Stat was 2.5 μM. N=3 experiments were performed for each cell line and mean±SD are plotted.

[3] = tested on: malignant melanoma cell lines (SK-MEL-2 and MeWo); test: Western blot of ζ-Stat treated samples; type: cell-based, human
Method: The change of levels of phosphorylated PKC-ι, total PKC-ι (FIG. 18A) and change of levels of phosphorylated PKC-ζ, total PKC-ζ (FIG. 18B) are shown for the ζ-Stat treated (2.5 μM) samples of malignant melanoma cell lines (SK-MEL-2 and MeWo) after the end of 3rd day of treatments. β-actin was used as the internal loading control in each Western blot. Whole cell lysate of 40 μg was separated on 7.5% SDS-PAGE and the Western blots of above proteins were obtained. N=3 experiments were performed in each case.

## CC(=O)C1=C(O)CCC1=O [ACPD, 2-acetyl-1,3-cyclopentanedione]
PKC-ι
  inhibition of PKC-ι: approximately 40%
[1]
  inhibition of other kinases: does not inhibit
MeWo cells
  WST-1 absorbance at 450 nm, effect: did not show a significant effect
Other PKC isoforms
  effect on other PKC isoforms: without affecting
SK-MEL-2 cells; SK-MEL-2, 24 h, Day 1
  inhibition at 0.05 µM: 1%
  inhibition at 0.1 µM: 11%
  inhibition at 0.2 µM: 19%
  inhibition at 0.5 µM: 26%
  inhibition at 1 µM: 36%
SK-MEL-2 cells; SK-MEL-2, 48 h, Day 2
  inhibition at 0.05 µM: 4%
  inhibition at 0.1 µM: 10%
  inhibition at 0.2 µM: 23%
  inhibition at 0.5 µM: 30%
  inhibition at 1 µM: 35%
SK-MEL-2 cells; SK-MEL-2, 72 h, Day 3
  inhibition at 0.05 µM: 5%
  inhibition at 0.1 µM: 9%
  inhibition at 0.2 µM: 20%
  inhibition at 0.5 µM: 26%
  inhibition at 1 µM: 37%
SK-MEL-2 cells; at the highest concentration used
  effectiveness on cell proliferation inhibition: 40%

## O=S(=O)(O)c1cc(O)c2c(S(=O)(=O)O)cc(S(=O)(=O)O)cc2c1 [ζ-Stat, 8-hydroxy-1,3,6-naphthalenetrisulfonic acid]
[2]
  toxicity according to the WST-1 assay: did not show toxicity
[3]
  apoptosis of malignant melanoma cells: induces the apoptosis
[3]; 2.5 μM, end of 3rd day
  phosphorylated PKC-ι level: did not change significantly
  reduction of pPKC-ζ level: 37%
  reduction of total PKC-ζ level: 42%
  total PKC-ι protein level: did not change significantly
